Source: patent US9271978B2 (Zenith Epigenetics Corp., priority 2012, dated 2016)

Columns and labels:
c-myc = experiment: Inhibition of c-myc expression in MV4-11 cells (mRNA, real-time PCR); type: cell-based; set-up: key: Active: Compounds with an IC50 value less than 30 μM were deemed to be active.; Not Active: Compounds with an IC50 value less than 30 μM were deemed to be active; conditions: Human AML MV4-11 cells, 3 h incubation
Procedure, shortened: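 MV4-11 cells (2.5×10^4) treated with compound or 0.1% DMSO for 3 h at 37 °C. c-myc mRNA measured by RT real-time PCR duplexed with cyclophilin. IC50 from dose–response curve.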

[1] = test system: human AML MV-4-11 (CRL-9591) cells; experiment: Inhibition of cell proliferation in MV4-11 cells; type: cell-based; set-up: key: Active: Compounds with an IC50 value less than 30 μM were deemed to be active.; Not Active: Compounds with an IC50 value less than 30 μM were deemed to be active; conditions: human AML MV-4-11 cells, 72 h; active = IC50 <30 μM
Procedure, shortened: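 Exponentially growing MV-4-11 cells (5×10^4/well) were treated immediately with two-fold dilutions of compound from 30 μM to 0.2 μM, in triplicate, for 72 h at 37° C, 5% CO2. Viability was measured by MTS absorbance at 490 nm after 3–4 h. Proliferation relative to DMSO after blank correction gave IC50.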

[2] = target: T1, Brd4 bromodomain 1 (BRD4(1)) (Homo sapiens, UniProt O60885); experiment: Inhibition of tetra-acetylated histone H4 binding to Brd4 bromodomain 1 (TR-FRET); set-up: key: Active: Compounds with an IC50 value less than 30 μM were deemed to be active.; Not Active: Compounds with an IC50 value less than 30 μM were deemed to be active; conditions: tetra-acetylated histone H4 peptide, active = IC50 <30 μM
T1 construct: Illustrative results with the first bromodomain of Brd4; made in house; host or cells: E. coli BL21 (DE3)
Procedure, shortened: (§1)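 N-terminally His-tagged bromodomains (200 nM), expressed in E. coli, were incubated with biotinylated tetra-acetylated histone H4 peptide (25-50 nM), Eu-cryptate streptavidin and XL665 anti-His antibody in HEPES pH 7.4 buffer with KF, 0.2% DMSO, 2 h at room temperature. Inhibition read as decreased 665/620 nm TR-FRET; IC50 from dose-response curves.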

hIL-6 mRNA = experiment: Inhibition of hIL-6 mRNA transcription in U937 cells; type: cell-based, human; set-up: key: Active: Compounds with an IC50 value less than 30 μM were deemed to be active.; Not Active: Compounds with an IC50 value less than 30 μM were deemed to be active; conditions: LPS stimulation, active = IC50 <30 μM
Procedure, shortened: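 U937 cells differentiated 3 days with 60 ng/mL PMA, pretreated 1 h with compound, then stimulated with 1 ug/mL E. coli LPS for 3 h at 37° C. hIL-6 mRNA quantified by one-step qRT-PCR, Ct normalized to internal control, expressed as fold induction relative to control.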

ApoA-I mRNA = experiment: Up-regulation of hApoA-1 mRNA transcription in Huh7 cells; type: cell-based, human; set-up: key: Active: Compounds with an EC170 value less than 30 μM were deemed to be active; conditions: 48 h treatment, ApoA-I mRNA by real-time PCR, Active = EC170 less than 30 μM
Method: In this example, ApoA-I mRNA in tissue culture cells was quantitated to measure the transcriptional up-regulation of ApoA-I when treated with a compound of the present disclosure.
Huh7 cells (2.5×10^5 per well) were plated in a 96-well plate using 100 μL DMEM per well, (Gibco DMEM supplemented with penicillin/streptomycin and 10% FBS), 24 h before the addition of the compound of interest. After 48 h treatment, the spent media was removed from the Huh-7 cells and placed on ice (for immediate use) or at −80° C. (for future use) with the “LDH cytotoxicity assay Kit II” from Abcam. The cells remaining in the plate were rinsed with 100 μL PBS.
Then 85 μL of cell lysis solution was added to each well and incubated for 5-10 min at room temperature, to allow for complete cell lysis and detachment. mRNA was then prepared using the “mRNA Catcher PLUS plate” from Life Technologies, according to the protocol supplied. After the last wash, as much wash buffer as possible was aspirated without allowing the wells to dry. Elution Buffer (E3, 80 μL) was then added to each well. mRNA was then eluted by incubating the mRNA Catcher PLUS plate with Elution Buffer for 5 min at 68° C., and then 1 min at 4° C. Catcher plates with mRNA eluted were kept on ice for use or stored at −80° C.
The eluted mRNA isolated was then used in a one-step real-time PCR reaction, using components of the Ultra Sense Kit together with Life Technologies primer-probe mixes. Real-time PCR data was analyzed, using the Ct values, to determine the fold induction of each unknown sample, relative to the control (that is, relative to the control for each independent DMSO concentration).
Compounds with an EC170 value less than 30 μM were deemed to be active.

[3] = target: T2, second bromodomain of Brd2 (BRD2(2)) (Homo sapiens, UniProt P25440); experiment: Inhibition of tetra-acetylated histone H4 binding to Brd2 bromodomain 2 (TR-FRET); set-up: key: Active: Compounds with an IC50 value less than 30 μM were deemed to be active.; Not Active: Compounds with an IC50 value less than 30 μM were deemed to be active; conditions: tetra-acetylated histone H4 peptide, active = IC50 <30 μM
T2 construct: made in house; host or cells: E. coli BL21 (DE3)
T2 sequence (P25440 344-453 limits assumed): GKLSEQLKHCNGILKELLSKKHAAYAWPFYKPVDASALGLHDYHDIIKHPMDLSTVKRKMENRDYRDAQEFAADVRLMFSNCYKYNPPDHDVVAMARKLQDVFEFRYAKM
Procedure, shortened: as §1

| SMILES | c-myc activity (IC50 <30 μM) (c-myc) | Cell Proliferation activity (IC50 <30 μM) [1] | FRET activity (IC50 <30 μM) BRD4(1) [2] | IL-6 activity (IC50 <30 μM) (hIL-6 mRNA) | FRET activity (IC50 <30 μM) BRD2(2) [3] | ApoA-1 activity (EC170 <30 μM) (ApoA-I mRNA) |
| --- | --- | --- | --- | --- | --- | --- |
| Cc1noc(C)c1-c1cc(N)c(=O)n(Cc2ccc(Cl)s2)c1 [Example 222, 3-amino-1-((5-chlorothiophen-2-yl)methyl)-5-(3,5-dimethylisoxazol-4-yl)pyridin-2(1H)-one] | Active | Active | Active | Active | – | Active |
| Cc1noc(C)c1-c1ccc(=O)n(Cc2ccc(C(F)(F)F)cc2)c1 [Example 7, 5-(3,5-Dimethylisoxazol-4-yl)-1-(4-(trifluoromethyl)benzyl)pyridin-2(1H)-one] | – | Active | Active | Active | Active | Active |
| Cc1noc(C)c1-c1cc(N)c(=O)n(Cc2ccc(C#N)cc2)c1 [Example 216, 4-((3-amino-5-(3,5-dimethylisoxazol-4-yl)-2-oxopyridin-1(2H)-yl)methyl)benzonitrile] | Active | Active | Active | Active | – | Active |
| Cc1noc(C)c1-c1cc(Nc2ccccc2)c(=O)n(Cc2ccc(F)cc2)c1 [Example 182, 5-(3,5-dimethylisoxazol-4-yl)-1-(4-fluorobenzyl)-3-(phenylamino)pyridin-2(1H)-one] | Active | Not Active | Active | Active | – | Active |
| Cc1noc(C)c1-c1cc(Nc2ccccc2)c(=O)n(Cc2ccccc2)c1 [Example 72, 1-Benzyl-5-(3,5-dimethylisoxazol-4-yl)-3-(phenylamino)pyridin-2(1H)-one] | Active | – | Active | Active | Active | Active |
| Cc1noc(C)c1-c1cc(N)c(=O)n(Cc2ccc(C(F)(F)F)cc2)c1 [Example 228, 3-amino-5-(3,5-dimethylisoxazol-4-yl)-1-(4-(trifluoromethyl)benzyl)pyridin-2(1H)-one] | Active | Active | Active | Active | – | Active |
| COc1cc(-c2ccc(=O)n(Cc3ccc(C#N)cc3)n2)cc(OC)c1OC [Example 16, 4-((6-Oxo-3-(3,4,5-trimethoxyphenyl)pyridazin-1(6H)-yl)methyl)benzonitrile] | Not Active | – | Active | – | Active | Active |
| Cc1noc(C)c1-c1ccc(=O)n([C@H](C)c2ccc(F)cc2)c1 (single isomer, unassigned) [Example 111] | – | – | Active | Active | Active | Active |
| Cc1noc(C)c1-c1cc(Nc2ccn(C)n2)c(=O)n(Cc2ccccc2)c1 [Example 184, 1-benzyl-5-(3,5-dimethylisoxazol-4-yl)-3-((1-methyl-1H-pyrazol-3-yl)amino)pyridin-2(1H)-one] | Active | Active | Active | – | – | Active |
| Cc1noc(C)c1-c1ccc(=O)n(C(C)c2ccccn2)c1 (centres unmarked) [Example 112, 5-(3,5-Dimethylisoxazol-4-yl)-1-(1-(pyridin-2-yl)ethyl)pyridin-2(1H)-one] | – | – | Active | Not Active | Active | Active |

Further lines, with some results ahead:

| c-myc activity (IC50 <30 μM) (c-myc) | Cell Proliferation activity (IC50 <30 μM) [1] | FRET activity (IC50 <30 μM) BRD4(1) [2] | IL-6 activity (IC50 <30 μM) (hIL-6 mRNA) | FRET activity (IC50 <30 μM) BRD2(2) [3] | SMILES | ApoA-1 activity (EC170 <30 μM) (ApoA-I mRNA) |
| --- | --- | --- | --- | --- | --- | --- |
| Active | Active | Active | Active | – | Cc1noc(C)c1-c1cc(C(N)=O)c(=O)n(Cc2ccccc2)c1 [Example 230, 1-Benzyl-5-(3,5-dimethylisoxazol-4-yl)-2-oxo-1,2-dihydropyridine-3-carboxamide] | Active |
| Active | Active | Active | Active | – | Cc1noc(C)c1-c1cc(O)c(=O)n(Cc2ccccc2)c1 [Example 209, 1-benzyl-5-(3,5-dimethylisoxazol-4-yl)-3-hydroxypyridin-2(1H)-one] | Active |
| – | Active | Active | Active | Active | Cc1noc(C)c1-c1cn(Cc2ccccc2)c(=O)cn1 [Example 6, 1-Benzyl-5-(3,5-dimethylisoxazol-4-yl)pyrazin-2(1H)-one] | Active |
| Active | Active | Active | – | – | Cc1noc(C)c1-c1cc(N2CCC2)c(=O)n(Cc2ccccc2)c1 [Example 183, 3-(Azetidin-1-yl)-1-benzyl-5-(3,5-dimethylisoxazol-4-yl)pyridin-2(1H)-one] | Active |
| – | – | Active | Active | – | Cc1noc(CO)c1-c1ccc(=O)n(Cc2ccccc2)c1 [Example 214, 1-benzyl-5-(5-(hydroxymethyl)-3-methylisoxazol-4-yl)pyridin-2(1H)-one] | Active |
